For 7 compounds, MIC results are on record in patent publication US4534898A, “1-Oxa-1-dethia-cephalosporin derivatives” (Merck & Co., Inc., priority 1982, dated 1985).

Holding throughout (assay type): cell-based
One assay relates to Ps. aeruginosa. Kind of assay: MIC against Ps. aeruginosa. The note with it: Pseudomonas aeruginosa. The source says: (§1) The compounds (I) of this invention are clearly different from various cephem derivatives described in Japanese Patent Pre-publication ("Kokai") No. 25551/78 and U.S. Pat. No. 4,226,866 in respect of the presence of a lower alkyl group at 2-position of the cephem nucleus. […] Minimum inhibitory concentrations (M.I.C.) (μg/ml) of the compounds (I) to various bacteria are set out in Table 1 below.

The next assay concerns C. freundii CN346. The experiment in a line: MIC against C. freundii CN346. Conditions: Citrobacter freundii.
Excerpt: as §1

For another assay, the system named is S. typhimurium LT-2. The experiment in a line: MIC against S. typhimurium LT-2. Conditions: Salmonella enterica.
Excerpt: as §1

The subject of a further assay is Pr. vulgaris GN76. Kind of assay: MIC against Pr. vulgaris GN76. The note with it: Proteus vulgaris.
Excerpt: as §1

A further assay concerns Staph. aureus Smith. Kind of assay: MIC against Staph. aureus Smith. The note with it: Staphylococcus aureus.
Excerpt: as §1

A further assay has as its system Kl. pneumoniae PCI 602. Kind of assay: MIC against Kl. pneumoniae PCI 602. The note with it: Klebsiella pneumoniae, PCI602.
Excerpt: as §1

The next assay relates to Pr. mirabilis GN79. Kind of assay: MIC against Pr. mirabilis GN79. Conditions: Proteus mirabilis.
Excerpt: as §1

Another assay has as its system Pr. rettgeri GN624. The experiment in a line: MIC against Pr. rettgeri GN624. The note with it: Providencia rettgeri.
Excerpt: as §1

A further assay deals with Ent. cloacae G-0006. The experiment in a line: MIC against Ent. cloacae G-0006. The note with it: Enterobacter cloacae, G0006.
Excerpt: as §1

The test system of a further assay is Staph. aureus 209P JC-1. Kind of assay: MIC against Staph. aureus 209P JC-1. Conditions: Staphylococcus aureus.
Excerpt: as §1

A further assay relates to Ser. marcescens No. 2. The experiment in a line: MIC against Ser. marcescens No. 2. The note with it: Serratia marcescens.
Excerpt: as §1

Where [1] appears, read: C. freundii CN346, read-out: MIC.
Setting [2] is: S. typhimurium LT-2, read-out: MIC.
The mark [3] stands for this setting: Pr. vulgaris GN76, read-out: MIC.
[4] abbreviates: Ser. marcescens No. 2, read-out: MIC.

The structures appear in SMILES notation. In brackets after ≈: the same amount, converted by molar mass. Like-named read-outs stand apart in the source and are kept apart here.

In the case of `CO[C@@]1(NC(=O)Cc2cccs2)C(=O)N2C(C(=O)O)=C(CSc3nnnn3C)[C@H](C)O[C@@H]21` [compound 4, 7β-(2-Thienylacetamido)-7α-methoxy-2β-methyl-3-(1-methyl-1H--tetrazole-5-yl)thiomethyl-1-oxa-1-dethia-3-cephem-4-carboxylic acid], the MIC in the assay on Ps. aeruginosa was > 100 µg/mL; in the assay on C. freundii CN346 (setting [1]), 100 µg/mL (≈ 208 µM); in the assay on S. typhimurium LT-2 (setting [2]) it was 0.05 µg/mL (≈ 0.104 µM); with Pr. vulgaris GN76 (setting [3]), 0.39 µg/mL (≈ 0.812 µM); in the assay with Staph. aureus Smith, 0.2 µg/mL (≈ 0.416 µM); in the assay with Kl. pneumoniae PCI 602, 1.56 µg/mL (≈ 3.25 µM). For the same compound, the minimum inhibitory concentration (MIC) came out at 12.5 µg/mL (≈ 26 µM) in the assay with Pr. mirabilis GN79; 25 µg/mL (≈ 52 µM) in the assay on Pr. rettgeri GN624; 100 µg/mL (≈ 208 µM) against Ent. cloacae G-0006; 0.2 µg/mL (≈ 0.416 µM) against Staph. aureus 209P JC-1; 1.56 µg/mL (≈ 3.25 µM) against Ser. marcescens No. 2 (NO.2).
`CO[C@@]1(NC(=O)C(C(=O)O)c2cccs2)C(=O)N2C(C(=O)O)=C(CSc3nnnn3C)[C@@H](C)O[C@@H]21` (stereo partly drawn) [compound 5, 7β-[2-(2-Thienyl)-2-carboxyacetamido]-7α-methoxy-2α-methyl-3-(1-methyl-1H--tetrazole-5-yl)thiomethyl-1-oxa-1-dethia-3-cephem-4-carboxylic acid]: the MIC in the assay with Ps. aeruginosa turned out to be 100 µg/mL (≈ 191 µM); in the assay on C. freundii CN346 (setting [1]) it was 25 µg/mL (≈ 47.7 µM); in the assay on S. typhimurium LT-2 (setting [2]), 0.1 µg/mL (≈ 0.191 µM); with Pr. vulgaris GN76 (setting [3]) it was 0.39 µg/mL (≈ 0.744 µM); in the assay with Staph. aureus Smith, 0.78 µg/mL (≈ 1.49 µM); against Kl. pneumoniae PCI 602, 1.56 µg/mL (≈ 2.97 µM). For the same compound, the MIC with Pr. mirabilis GN79 came to 0.78 µg/mL (≈ 1.49 µM); in the assay with Pr. rettgeri GN624 it was 3.13 µg/mL (≈ 5.97 µM); against Ent. cloacae G-0006, 100 µg/mL (≈ 191 µM); against Staph. aureus 209P JC-1, 0.78 µg/mL (≈ 1.49 µM); in the assay on Ser. marcescens No. 2 (setting [4]), 0.78 µg/mL (≈ 1.49 µM).
Turning to `CO[C@@]1(NC(=O)C(C(=O)O)c2cccs2)C(=O)N2C(C(=O)O)=C(CSc3nnnn3C)[C@H](C)O[C@@H]21` (stereo partly drawn) [compound 6, 7β-[2-(2-Thienyl)-2-carboxyacetamido]-7α-methoxy-2β-methyl-3-(1-methyl-1H--tetrazole-5-yl)thiomethyl-1-oxa-1-dethia-3-cephem-4-carboxylic acid], the MIC in the assay with Ps. aeruginosa was 25 µg/mL (≈ 47.7 µM); with C. freundii CN346 (CN346), 1.56 µg/mL (≈ 2.97 µM); in the assay on S. typhimurium LT-2 (setting [2]), ≤ 0.025 µg/mL; in the assay with Pr. vulgaris GN76 (setting [3]) it was 0.1 µg/mL (≈ 0.191 µM); against Staph. aureus Smith it was 0.78 µg/mL (≈ 1.49 µM); with Kl. pneumoniae PCI 602, 1.56 µg/mL (≈ 2.97 µM). Besides, the minimal inhibitory concentration (MIC) in the assay with Pr. mirabilis GN79 is 0.1 µg/mL (≈ 0.191 µM); against Pr. rettgeri GN624 it was ≤ 0.025 µg/mL; with Ent. cloacae G-0006, 6.25 µg/mL (≈ 11.9 µM); in the assay on Staph. aureus 209P JC-1, 0.39 µg/mL (≈ 0.744 µM); in the assay on Ser. marcescens No. 2 (setting [4]), 0.2 µg/mL (≈ 0.381 µM).
`CO[C@@]1(NC(=O)C(C(=O)O)c2ccsc2)C(=O)N2C(C(=O)O)=C(CSc3nnnn3C)[C@H](C)O[C@@H]21` (stereo partly drawn) [compound 7, 7β-[2-(3-Thienyl)-2-carboxyacetamido]-7α-methoxy-2β-methyl-3-(1-methyl-1H--tetrazole-5-yl)thiomethyl-1-oxa-1-dethia-3-cephem-4-carboxylic acid]: the minimal inhibitory concentration (MIC) in the assay with Ps. aeruginosa was 25 µg/mL (≈ 47.7 µM); in the assay with C. freundii CN346 (setting [1]) it was 1.56 µg/mL (≈ 2.97 µM); in the assay on S. typhimurium LT-2 (setting [2]), ≤ 0.025 µg/mL; in the assay on Pr. vulgaris GN76 (setting [3]), 0.1 µg/mL (≈ 0.191 µM); against Staph. aureus Smith, 1.56 µg/mL (≈ 2.97 µM); against Kl. pneumoniae PCI 602 it was 0.05 µg/mL (≈ 0.0953 µM). For the same compound, the MIC against Pr. mirabilis GN79 was 0.2 µg/mL (≈ 0.381 µM); against Pr. rettgeri GN624, 0.05 µg/mL (≈ 0.0953 µM); with Ent. cloacae G-0006 it was 3.13 µg/mL (≈ 5.97 µM); with Staph. aureus 209P JC-1, 1.56 µg/mL (≈ 2.97 µM); in the assay with Ser. marcescens No. 2 (setting [4]) it was 0.2 µg/mL (≈ 0.381 µM).
In the case of `C[C@H]1O[C@@H]2[C@H](NC(=O)Cc3cccs3)C(=O)N2C(C(=O)O)=C1CSc1nnnn1C` [compound 1, 7-(2-Thienylacetamido)-2α-methyl-3-(1-methyl-1H--tetrazole-5-yl)thiomethyl-1-oxa-1-dethia-3-cephem-4-carboxylic acid], the MIC against Ps. aeruginosa worked out at 12.5 µg/mL (≈ 27.7 µM); in the assay on C. freundii CN346 (setting [1]), 3.13 µg/mL (≈ 6.95 µM); in the assay with S. typhimurium LT-2 (setting [2]), 0.025 µg/mL (≈ 0.0555 µM); in the assay on Pr. vulgaris GN76 (setting [3]) it was 0.1 µg/mL (≈ 0.222 µM); against Staph. aureus Smith, 0.2 µg/mL (≈ 0.444 µM); in the assay with Kl. pneumoniae PCI 602, 0.1 µg/mL (≈ 0.222 µM). Moreover, the MIC turned out to be 0.1 µg/mL (≈ 0.222 µM) against Pr. mirabilis GN79; 0.05 µg/mL (≈ 0.111 µM) with Pr. rettgeri GN624; 25 µg/mL (≈ 55.5 µM) with Ent. cloacae G-0006; 0.2 µg/mL (≈ 0.444 µM) against Staph. aureus 209P JC-1; 0.1 µg/mL (≈ 0.222 µM) with Ser. marcescens No. 2 (setting [4]).
Take `C[C@@H]1O[C@@H]2[C@H](NC(=O)Cc3cccs3)C(=O)N2C(C(=O)O)=C1CSc1nnnn1C` [compound 2, 7-(2-Thienylacetamido)-2β-methyl-3-(1-methyl-1H--tetrazole-5-yl)thiomethyl-1-oxa-1-dethia-3-cephem-4-carboxylic acid]: the minimum inhibitory concentration (MIC) against Ps. aeruginosa is > 100 µg/mL; with C. freundii CN346 (setting [1]), 100 µg/mL (≈ 222 µM); in the assay on S. typhimurium LT-2 (setting [2]) it was 0.1 µg/mL (≈ 0.222 µM); in the assay on Pr. vulgaris GN76 (GN76) it was 1.56 µg/mL (≈ 3.46 µM); against Staph. aureus Smith, 0.05 µg/mL (≈ 0.111 µM); in the assay with Kl. pneumoniae PCI 602 it was 1.56 µg/mL (≈ 3.46 µM). Further, the minimal inhibitory concentration (MIC) against Pr. mirabilis GN79 is 12.5 µg/mL (≈ 27.7 µM); in the assay on Pr. rettgeri GN624, 12.5 µg/mL (≈ 27.7 µM); in the assay on Ent. cloacae G-0006 it was 100 µg/mL (≈ 222 µM); in the assay on Staph. aureus 209P JC-1 it was 0.025 µg/mL (≈ 0.0555 µM); in the assay with Ser. marcescens No. 2 (setting [4]), 6.25 µg/mL (≈ 13.9 µM).
For `CO[C@@]1(NC(=O)Cc2cccs2)C(=O)N2C(C(=O)O)=C(CSc3nnnn3C)[C@@H](C)O[C@@H]21` [compound 3, 7β-(2-Thienylacetamido)-7α-methoxy-2α-methyl-3-(1-methyl-1H--tetrazole-5-yl)thiomethyl-1-oxa-1-dethia-3-cephem-4-carboxylic acid], the MIC is > 100 µg/mL against Ps. aeruginosa; > 100 µg/mL in the assay with C. freundii CN346 (setting [1]); 1.56 µg/mL (≈ 3.25 µM) against S. typhimurium LT-2 (TYPHIMURIUM); 12.5 µg/mL (≈ 26 µM) in the assay on Pr. vulgaris GN76 (setting [3]); 0.39 µg/mL (≈ 0.812 µM) against Staph. aureus Smith; 25 µg/mL (≈ 52 µM) with Kl. pneumoniae PCI 602. The minimal inhibitory concentration (MIC) is > 100 µg/mL in the assay on Pr. mirabilis GN79; > 100 µg/mL against Pr. rettgeri GN624; > 100 µg/mL in the assay with Ent. cloacae G-0006; 0.39 µg/mL (≈ 0.812 µM) against Staph. aureus 209P JC-1; 12.5 µg/mL (≈ 26 µM) in the assay on Ser. marcescens No. 2 (setting [4]).
